The values that follow come from patent US5508456A, “9-cis tritium-labeled retinoids and intermediates, methods for their synthesis and methods for their use in discovering retinoid X receptor ligands” (Ligand Pharmaceuticals Incorporated, priority 1994, dated 1996).

Structures are written as SMILES. “Also recorded” adds a separate entry of the source.

Assay [1] has as its system RARs and RXRs. As to conditions: Heyman et al., Cell, 68:397 (1992); cited from earlier work.
The test system of assay [2] is RARs and RXRs. Kind of assay: Binding to RARs and RXRs (summary over all six receptors). Particulars: RARα,β,γ and RXRα,β,γ.
In a further assay the test system is RXRs. The assay is described as follows: Binding to RXRs (summary).
Assay [3] relates to RARs and RXRs. Kind of assay: Binding to and modulating gene expression via RARs and RXRs. As to conditions: labeled retinoid.

Consider `CC1=C(/C=C/C(C)=C\C=C\C(C)=C\C(=O)O)C(C)(C)CCC1` [9-cis RA, (2E,4E,6Z,8E)-3.7-Dimethyl-9-(2,6,6-trimethylcyclohexen-1-yl)nona-2.4.6.8-tetraenoic acid], for which the “binding to and modulating gene expression via the RARs and RXRs, in words” value in the assay with RARs and RXRs [1] is “capable of binding to and modulating gene expression via the RARs and RXRs”. Further, the “binding to / activity on RARs and RXRs, in words” value (“binding to / activity” for short) is “active on all six known retinoid receptors” in the assay on RARs and RXRs [2]; “effectively binds to all six receptors; also recorded: binds to the RARs and RXRs with high affinity in a saturable and specific manner” in the assay with RARs and RXRs [2] (listed as 9-cis retinoic acid).

In the case of `CC1=C(/C=C/C(C)=C/C=C/C(C)=C/C(=O)O)C(C)(C)CCC1` [ATRA, all-trans retinoic acid], the “binding to RXRs, in words” value with RXRs was “does not bind to RXRs”. The “binding to / activity” value in the assay on RARs and RXRs [2] is on record as “only binds to the RARs”; in the assay on RARs and RXRs [2] (listed as all-trans retinoic acid (ATRA)), “only active on RARα,β,γ”.

On to `[3H]C(/C=C(C)\C=C\C1=C(C)CCCC1(C)C)=C\C(C)=C\C(=O)O` [monotritium-labeled 9-cis RA, (2E,4E,6Z,8E)-5-[^3 H]-3,7-Dimethyl-9-(2,6,6-trimethylcyclohexen-1-yl)nona-2,4,6,8-tetraenoic acid], for which, in the assay on RARs and RXRs [3], the “binding with, and modulating gene expression from, both RARs and RXRs, in words” value was “capable of binding with, and modulating gene expression from, both RARs and RXRs”. Moreover, in the assay with RARs and RXRs [2], the “binding to / activity” value is “binds to all the known RARs and RXRs with approximately equal nanomolar affinities”.
